Measurements reported in US10701936B2, “Herbicidal composition and method for controlling weeds” (Sumitomo Chemical Company, Limited, priority 2016, dated 2020).

Key:
Setaria faberi = assay: Herbicidal effect, foliar spray pot test in greenhouse (Example 102); format: in vivo; conditions: sprayed at 2-3 leaf stage, a week after, scale 0-100
Protocol: (§1) A plastic pot was filled with a commercially-available culture soil, and thereto inubie (common barnyardgrass; Echinochloa crus-galli) or akinoenokorogusa (giant foxtail; Setaria faberi) was seeded, and covered with the soil to about 0.5 cm, followed by growing the weeds in a greenhouse. When the weeds grew to two to three leaf stage, a spray liquid of the compound X, a spray liquid of 2,4-D choline salt, or a spray liquid of the present composition was uniformly sprayed to the whole plants so that the application rate might be a predetermined value. The spray liquid of the present composition was prepared by mixing the spray liquid of the compound X with the spray liquid of 2,4-D choline salt. The spray liquid of the compound X was prepared by mixing a predetermined amount of the formulation X with deionized water. The spray liquid of 2,4-D choline salt was prepared by dissolving 2,4-D choline salt with a 2 wt % solution of TWEEN® 20 (polyoxyethylenesorbitan fatty acid ester, manufactured by MP Biomedicals) in dimethylformamide, followed by mixing with deionized water. After applying the spray liquid, the plants were placed in a greenhouse for a week. A herbicidal effect was evaluated by classifying the effect into 101 stages from 0 (no effect) to 100 (completely dead).
(§2) The expected value of the herbicidal effect in the case of mixed use was calculated from the result of the herbicidal effect in the case of single use of each of the compounds (the value of A or B) according to the formula of Colby ((expected value)=100−(100−A)×(100−B)/100).

Echinochloa crus-galli = assay: as above; format: in vivo; conditions: sprayed at 2-3 leaf stage, a week after, scale 0-100
Protocol: as §1, §2

[1] = 2,4-D choline salt 50 g/ha alone
[2] = 2,4-D choline salt 500 g/ha alone

SMILES	Herbicidal effect on Setaria faberi (observed value) (Setaria faberi; [1])	Herbicidal effect on Setaria faberi (observed value) (Setaria faberi; [2])	Herbicidal effect on Echinochloa crus-galli (observed value) (Echinochloa crus-galli; [1])	Herbicidal effect on Echinochloa crus-galli (observed value) (Echinochloa crus-galli; [2])	Herbicidal effect on Setaria faberi (observed value) (Setaria faberi; Compound X 5 g/ha alone)	Herbicidal effect on Setaria faberi (observed value) (Setaria faberi; Compound X 10 g/ha alone)	Herbicidal effect on Echinochloa crus-galli (observed value) (Echinochloa crus-galli; Compound X 5 g/ha alone)	Herbicidal effect on Echinochloa crus-galli (observed value) (Echinochloa crus-galli; Compound X 10 g/ha alone)
C[N+](C)(C)CCO.O=C([O-])COc1ccc(Cl)cc1Cl [2,4-D choline salt]	0	10	0	10	–	–	–	–
CCOC(=O)COc1ncccc1Oc1cc(-n2c(=O)cc(C(F)(F)F)n(C)c2=O)c(F)cc1Cl [Compound X, ethyl [3-[2-chloro-4-fluoro-5-(1-methyl-6-trifluoromethyl-2,4-dioxo-1,2,3,4-tetrahydropyrimidin-3-yl)phenoxy]-2-pyridyloxy]acetate]	–	–	–	–	30	45	20	35
